Columns and labels:
5-HT3-B and 5-HT3-C = target: T1, 5-HT3-B and 5-HT3-C (Homo sapiens, UniProt O95264+Q8WXA8); assay: Two-electrode voltage clamp, oocytes co-injected with 5-HT3-B and 5-HT3-C; assay type: cell-based; details: 10 μM; 5-HT3-B 3.3 ng, 5-HT3-C 3.35 ng/oocyte
T1 construct: Characterization of the Function of Protein Encoded by p5HT3CR in Xenopus oocvtes; expressed in transfected cells; host or cells: Xenopus laevis oocytes co-injected with cRNAs
T1 sequence (O95264 22-441): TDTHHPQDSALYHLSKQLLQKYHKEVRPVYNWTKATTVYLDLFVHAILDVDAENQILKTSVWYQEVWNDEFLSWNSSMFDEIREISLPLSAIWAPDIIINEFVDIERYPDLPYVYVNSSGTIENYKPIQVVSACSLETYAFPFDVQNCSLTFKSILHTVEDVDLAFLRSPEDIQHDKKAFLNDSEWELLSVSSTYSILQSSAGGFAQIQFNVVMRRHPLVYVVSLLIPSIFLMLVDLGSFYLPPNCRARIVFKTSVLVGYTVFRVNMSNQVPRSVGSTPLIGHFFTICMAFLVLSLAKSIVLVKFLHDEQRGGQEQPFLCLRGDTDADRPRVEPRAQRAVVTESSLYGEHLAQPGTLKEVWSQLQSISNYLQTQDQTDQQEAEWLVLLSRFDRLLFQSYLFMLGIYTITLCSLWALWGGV
T1 sequence (Q8WXA8 28-447): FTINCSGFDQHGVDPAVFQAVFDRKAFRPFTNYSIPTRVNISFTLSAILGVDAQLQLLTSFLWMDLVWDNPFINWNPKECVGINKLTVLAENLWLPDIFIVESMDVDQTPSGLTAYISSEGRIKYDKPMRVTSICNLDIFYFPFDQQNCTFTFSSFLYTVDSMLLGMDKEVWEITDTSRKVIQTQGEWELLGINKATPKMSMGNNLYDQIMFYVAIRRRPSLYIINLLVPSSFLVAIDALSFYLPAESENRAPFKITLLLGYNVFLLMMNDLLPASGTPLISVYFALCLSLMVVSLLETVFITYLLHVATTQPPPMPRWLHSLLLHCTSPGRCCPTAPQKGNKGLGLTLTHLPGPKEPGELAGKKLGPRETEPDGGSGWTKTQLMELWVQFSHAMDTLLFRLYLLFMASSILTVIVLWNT
Procedure: Characterization of the Function of Protein Encoded by p5HT3CR in Xenopus oocvtes Xenopus laevis oocytes were prepared and injected using standard methods previously described and known in the art (Fraser et al., 1993). Ovarian lobes from adult female Xenopus laevis (Nasco, Fort Atkinson, Wis.) were teased apart, rinsed several times in nominally Ca-free saline containing (in mM): NaCl 82.5, KCl 2.5, MgCl2 1, HEPES 5, adjusted to pH 7.0 with NaOH(OR-2), and gently shaken in OR-2 containing 0.2% collagenase Type 1 (ICN Biomedicals, Aurora, Ohio) for 2–5 hours. When approximately 50% of the follicular layers were removed, Stage V and VI oocytes were selected and rinsed in media consisting of 75% OR-2 and 25% ND-96. The ND-96 contained (in mM): NaCl 100, KCl 2, MgCl2 1, CaCl2 1.8, HEPES 5, Na pyruvate 2.5, gentamicin (50 ug/ml), adjusted to pH 7.0 with NaOH. […] For in vitro transcription, pGEM HE (Liman et al., 1992) containing human 5-HT3-A (Genbank D49394) or 5-HT3-C cDNA was linearized with NheI and transcribed with T7 RNA polymerase (Stratagene) in the presence of the cap analog m7G(5′)ppp(5′)G. The synthesized cRNA was purified with a Sephadex G-50 spin column. […] Control oocytes were injected with 50 nl of water. Oocytes were incubated for 2–14 days in ND-96 before analysis for expression of the human 5-HT3-C. Incubations and collagenase digestion were carried out at room temperature. Injected oocytes were maintained in 48 well cell culture clusters (Costar, Cambridge, Mass.) at 18° C. Whole cell agonist-induced currents were measured 1–14 days after injection with a conventional two-electrode voltage clamp (GeneClamp500, Axon Instruments, Foster City, Calif.) using standard methods previously described and known in the art (Dascal, 1987). The microelectrodes were filled with 3 M KCl, which had resistances of 1 and 2 MΩ. Cells were continuously perfused with ND96 at 10 ml/min at room temperature unless indicated. Membrane voltage was clamped at −70 mV unless indicated.

[1] = target: T2, 5-HT3-C together with nicotinic ACh receptor a6 subunit (Homo sapiens, UniProt Q15825+Q8WXA8); assay: Two-electrode voltage clamp, oocytes injected with 5-HT3-C together with nicotinic ACh receptor α6 subunit; assay type: cell-based; details: 10 μM; eight days after injection; 5-HT3-C 0.67 ng, a6 1 ng/oocyte
T2 construct: Characterization of the Function of Protein Encoded by p5HT3CR in Xenopus oocvtes; expressed in transfected cells; host or cells: Xenopus laevis oocytes injected with cRNA
T2 sequence (Q15825 26-494, one chain of several): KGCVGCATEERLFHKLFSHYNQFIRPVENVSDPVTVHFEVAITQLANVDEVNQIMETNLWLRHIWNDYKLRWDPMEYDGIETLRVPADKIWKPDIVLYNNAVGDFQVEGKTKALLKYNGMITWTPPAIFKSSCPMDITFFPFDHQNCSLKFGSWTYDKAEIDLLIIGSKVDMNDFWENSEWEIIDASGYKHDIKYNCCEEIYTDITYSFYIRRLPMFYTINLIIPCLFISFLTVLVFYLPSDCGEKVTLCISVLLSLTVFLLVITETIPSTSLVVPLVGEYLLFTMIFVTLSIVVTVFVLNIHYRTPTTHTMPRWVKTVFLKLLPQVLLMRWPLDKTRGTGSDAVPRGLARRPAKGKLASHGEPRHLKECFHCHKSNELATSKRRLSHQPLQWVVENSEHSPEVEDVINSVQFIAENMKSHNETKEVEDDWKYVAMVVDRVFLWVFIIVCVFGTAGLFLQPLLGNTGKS
Procedure: Characterization of the Function of Protein Encoded by p5HT3CR in Xenopus oocvtes Xenopus laevis oocytes were prepared and injected using standard methods previously described and known in the art (Fraser et al., 1993). Ovarian lobes from adult female Xenopus laevis (Nasco, Fort Atkinson, Wis.) were teased apart, rinsed several times in nominally Ca-free saline containing (in mM): NaCl 82.5, KCl 2.5, MgCl2 1, HEPES 5, adjusted to pH 7.0 with NaOH(OR-2), and gently shaken in OR-2 containing 0.2% collagenase Type 1 (ICN Biomedicals, Aurora, Ohio) for 2–5 hours. When approximately 50% of the follicular layers were removed, Stage V and VI oocytes were selected and rinsed in media consisting of 75% OR-2 and 25% ND-96. The ND-96 contained (in mM): NaCl 100, KCl 2, MgCl2 1, CaCl2 1.8, HEPES 5, Na pyruvate 2.5, gentamicin (50 ug/ml), adjusted to pH 7.0 with NaOH. […] For in vitro transcription, pGEM HE (Liman et al., 1992) containing human 5-HT3-A (Genbank D49394) or 5-HT3-C cDNA was linearized with NheI and transcribed with T7 RNA polymerase (Stratagene) in the presence of the cap analog m7G(5′)ppp(5′)G. The synthesized cRNA was purified with a Sephadex G-50 spin column. Oocytes were injected with 50 nl of the human serotonin 5-HT3-A receptor with or without the 5-HT3-C RNA (0.02 and 0.002–0.2 ng each) or other channel or receptor subunit. Control oocytes were injected with 50 nl of water. Oocytes were incubated for 2–14 days in ND-96 before analysis for expression of the human 5-HT3-C. Incubations and collagenase digestion were carried out at room temperature. Injected oocytes were maintained in 48 well cell culture clusters (Costar, Cambridge, Mass.) at 18° C. Whole cell agonist-induced currents were measured 1–14 days after injection with a conventional two-electrode voltage clamp (GeneClamp500, Axon Instruments, Foster City, Calif.) using standard methods previously described and known in the art (Dascal, 1987). The microelectrodes were filled with 3 M KCl, which had resistances of 1 and 2 MΩ. […]

## NCCc1c[nH]c2ccc(O)cc12 [5-HT, 5-hydroxytryptamine]
5-HT3-B and 5-HT3-C
  responsiveness of oocytes to agonist: unresponsive
[1]
  responsiveness of oocytes to agonist: not responsive

— US7109296B2, “Human 5-HT3-C protein” (Ortho-McNeil Pharmaceutical, Inc., priority 1999, dated 2006)
